Converted amounts (≈) assume the structure as drawn.
What was measured:
[1] = system: C. albicans ATCC 10231; assay: Microdilution MIC/MMC with resazurin; type: cell-based, Candida albicans; conditions: for MIC: Candida albicans, ATCC10231
Procedure: (§1) The antimicrobial activity of PCH-1 and PCH-2 was tested against 13 microorganisms. The experiment included four standard strains, Staphylococcus aureus ATCC 6538, Bacillus subtilis ATCC 6633, Proteus mirabilis ATCC 12453, and Pseudomonas aeruginosa ATCC 27853; five isolates, Staphylococcus aureus, Escherichia coli, Salmonella enterica, Klebsiella pneumoniae, and Bacillus subtilis; and one probiotic strain Lactobacillus plantarum 299V. Additionally, three fungal strains were tested, including one standard strain, Candida albicans ATCC 10231, and two isolates, Saccharomyces cerevisiae and probiotic strain Saccharomyces boulardii.
(§2) The bacterial suspensions were prepared using the direct colony method. The turbidity of the initial suspension was adjusted using a densitometer (DEN-1, BioSan, Latvia). When adjusted to the turbidity of the 0.5 McFarland standard, the bacterial suspension contains approximately 10^8 colony-forming units (CFU)/mL, and the yeast suspension contains approximately 10^6 CFU/mL. For the experiment, the initial suspension was further diluted at a 1:100 ratio in a sterile 0.85% saline solution.
(§3) The antimicrobial activity was assessed by determining the minimum inhibitory concentrations (MICs) and minimum microbicidal concentrations (MMCs) using the microdilution plate method with resazurin (Alfa Aesar GmbH & Co. (KG, Karlsruhe, Germany)). For this, 96-well plates were prepared by adding 100 μL of Mueller Hinton broth (Torlak, Belgrade, Serbia) for bacterial tests and Sabouraud broth (Torlak, Belgrade, Serbia) for yeast into each well. The tested PCH-1 and PCH-2 were dissolved in 10% dimethyl sulfoxide (DMSO) and then diluted into sterile distilled water. A 100 μL sample from the stock solution of the tested compound was then added to the first row of the plate, followed by twofold serial dilutions using a multichannel pipette. This produced a concentration range from 2.69 to 0.0025 µmol/L. The method is described in detail in the reported paper.
(§4) Each test setup included growth control and sterility control. […] Minimum microbicidal concentrations (MMCs) were determined as described in detail in the reported paper.

[2] = system: K. pneumoniae; assay: Microdilution MIC/MMC with resazurin; type: cell-based, Klebsiella pneumoniae; conditions: for MIC: Klebsiella pneumoniae
Procedure: as §1, §2, §3, §4

[3] = target: T1, Soybean lipoxygenase (Type I-B) (Glycine max, UniProt P08170); assay: In vitro LOX inhibition assay; type: biochemical; conditions: for inhibition at 25 µM / inhibition at 50 µM / inhibition at 100 µM: read-out: Anti-LOX Activity (%); for IC50: sodium linoleate substrate, tris buffer pH 9, read-out: IC50 (µM), in vitro lipoxygenase inhibitory activity
T1 construct: purchased Merck (KGaA, Darmstadt, Germany)
T1 sequence (P08170 1-839): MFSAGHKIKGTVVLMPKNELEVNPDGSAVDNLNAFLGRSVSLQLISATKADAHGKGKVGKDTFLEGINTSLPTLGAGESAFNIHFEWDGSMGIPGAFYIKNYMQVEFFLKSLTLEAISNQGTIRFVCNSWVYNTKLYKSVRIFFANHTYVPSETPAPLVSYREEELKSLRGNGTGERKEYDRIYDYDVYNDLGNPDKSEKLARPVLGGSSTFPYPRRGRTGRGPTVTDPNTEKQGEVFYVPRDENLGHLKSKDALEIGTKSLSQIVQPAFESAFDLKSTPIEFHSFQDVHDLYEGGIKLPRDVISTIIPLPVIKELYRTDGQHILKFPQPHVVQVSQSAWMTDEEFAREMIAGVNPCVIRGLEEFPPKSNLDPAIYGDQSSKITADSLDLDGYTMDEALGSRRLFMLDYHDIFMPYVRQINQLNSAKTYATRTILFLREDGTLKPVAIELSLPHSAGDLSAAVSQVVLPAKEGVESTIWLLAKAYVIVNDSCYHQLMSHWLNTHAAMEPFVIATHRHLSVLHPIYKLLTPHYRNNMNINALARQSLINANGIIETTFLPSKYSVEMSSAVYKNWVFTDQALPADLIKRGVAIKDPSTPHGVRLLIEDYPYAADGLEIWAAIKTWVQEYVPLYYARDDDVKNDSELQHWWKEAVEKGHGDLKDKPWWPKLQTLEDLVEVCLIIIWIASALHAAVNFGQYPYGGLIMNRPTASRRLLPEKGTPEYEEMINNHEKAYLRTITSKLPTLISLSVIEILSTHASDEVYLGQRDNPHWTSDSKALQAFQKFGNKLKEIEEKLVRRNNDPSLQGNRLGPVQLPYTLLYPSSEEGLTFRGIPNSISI
Source text: Soybean lipoxygenase (Type I-B) is a very often used enzyme for the investigation of anti-inflammatory properties of compounds [38]. The LOX inhibition assay measures the rate of oxidation of linoleic acid by lipoxygenase, which results in the formation of a colorless product that can be detected spectrophotometrically. This enzyme catalyzes the conversion of linoleic acid into hydroperoxy fatty acids and results in increased absorbance at 234 nm. The tested compounds dissolved in DMSO were incubated at room temperature with sodium linoleate (3 mM in tris buffer pH = 9) and enzyme solution (5 × 10^3 units/mL in saline). The activity for each tested compound was presented as IC50 value ± standard deviation (SD) of three independent measurements.

[4] = system: B. subtilis (isolate); assay: Microdilution MIC/MMC with resazurin; type: cell-based, Bacillus subtilis; conditions: for MIC: Bacillus subtilis
Procedure: as §1, §2, §3, §4

[5] = system: B. subtilis ATCC 6633; assay: Microdilution MIC/MMC with resazurin; type: cell-based, Bacillus subtilis; conditions: for MIC: Bacillus subtilis, ATCC6633
Procedure: as §1, §2, §3, §4

[6] = system: S. enterica; assay: Microdilution MIC/MMC with resazurin; type: cell-based, Salmonella enterica; conditions: for MMC: S. enterica; for MIC: Salmonella enterica
Procedure: as §1, §2, §3, §4

C/C(NNC(=O)c1ccc(O)c(O)c1O)=C1\C(=O)Oc2ccccc2C1=O [PCH-1, (E)-N′-(1-(2,4-dioxochroman-3-ylidene)ethyl)-2,3,4-trihydroxybenzohydrazide]
MMC [1]: 0.34 mM
MIC [1]: 170 µM (≈ 63 µg/mL)
MMC [2]: 0.34 mM
MIC [2]: 170 µM (≈ 63 µg/mL)
inhibition at 25 µM [3]: 32.8 ± 2.4%
inhibition at 30 µM [3]: 36.8 ± 2.4%
inhibition at 40 µM [3]: 51.4 ± 1.8%
inhibition at 50 µM [3]: 65.1 ± 2%
inhibition at 60 µM ([3]; 60 µM): 84.9 ± 0.1%
inhibition at 100 µM [3]: 96.1 ± 0.7%
IC50 [3]: 38.1 µM
MMC [4]: 1.35 mM
MIC [4]: 1350 µM (≈ 500 µg/mL)
MMC [5]: 2.70 mM
MIC [5]: 2700 µM (≈ 1000 µg/mL)
MMC [6]: 0.17 mM
MIC [6]: 170 µM (≈ 63 µg/mL)

C/C(NNC(=O)c1cc(O)c(O)c(O)c1)=C1\C(=O)Oc2ccccc2C1=O [PCH-2, (E)-N′-(1-(2,4-dioxochroman-3-ylidene)ethyl)-3,4,5-trihydroxybenzohydrazide]
MMC [1]: 1.35 mM
MIC [1]: 170 µM (≈ 63 µg/mL)
MMC [2]: 0.34 mM
MIC [2]: 170 µM (≈ 63 µg/mL)
inhibition at 20 µM ([3]; 20 µM): 20.7 ± 2.7%
inhibition at 25 µM [3]: 38.9 ± 3.1%
inhibition at 30 µM [3]: 41.9 ± 1.4%
inhibition at 40 µM [3]: 67 ± 0.9%
inhibition at 50 µM [3]: 71.7 ± 2.2%
inhibition at 100 µM [3]: 95.2 ± 1%
IC50 [3]: 34.1 µM
MMC [4]: 1.35 mM
MIC [4]: 1350 µM (≈ 500 µg/mL)
MMC [5]: 0.34 mM
MIC [5]: 340 µM (≈ 126 µg/mL)
MMC [6]: 0.34 mM
MIC [6]: 80 µM (≈ 29.6 µg/mL)

From PMC11597774, “Investigation of Antimicrobial and Anti-Inflammatory Efficacy of Newly Synthesized Pyrogallol-Coumarin Hybrids: In Vitro and In Silico Studies” (Pharmaceutics, 2024)
